Results reported in patent US12006328B2, “Thieno[2,3-d]pyrimidin-4-one derivatives as NMDAR modulators and uses related thereto” (Emory University, priority 2014, dated 2024).

How the values were obtained:
[1] = test system: hippocampal CA1 neurons; assay: Hippocampal slice whole cell recordings; type: cell-based, mice
Description: Coronal hippocampal brain slices were made from mice (p7-14) using a vibrotome. During slice cutting and recovery, the slices were bathed in an artificial cerebral spinal fluid (slicing aCSF—containing, in mM: 75 NaCl, 2.5 KCl, 1.25 NaH2PO4, 25 NaHCO3, 5 MgCl2 or MgSO4, 0.5 CaCl2, 20 Glucose, 70 Sucrose). Whole cell recordings were made using a different aCSF (recording aCSF—containing, in mM: 130 NaCl, 2.5 KCl, 1.25 NaH2PO4, 25 NaHCO3, 0.1 MgCl2 or MgSO4, 2.5 CaCl2, 20 Glucose), and using a CsGlu internal solution containing, following (in mM): 110 d-gluconic acid, 110 CsOH, 30 CsCl, 5 HEPES, 4 NaCl, 0.5 CaCl2, 2 MgCl2, 5 BAPTA, 2 Na2ATP, and 0.3 NaGTP (pH 7.35).

[2] = biological target: T1, GluN1/GluN2B expressing HEK293 cells (Homo sapiens, UniProt Q13224); assay: Rapid solution exchange patch clamp in transfected HEK293 cells; type: cell-based
T1 construct: expressed in transfected cells; host or cells: HEK293
T1 sequence (Q13224 27-1484, other chains not shown): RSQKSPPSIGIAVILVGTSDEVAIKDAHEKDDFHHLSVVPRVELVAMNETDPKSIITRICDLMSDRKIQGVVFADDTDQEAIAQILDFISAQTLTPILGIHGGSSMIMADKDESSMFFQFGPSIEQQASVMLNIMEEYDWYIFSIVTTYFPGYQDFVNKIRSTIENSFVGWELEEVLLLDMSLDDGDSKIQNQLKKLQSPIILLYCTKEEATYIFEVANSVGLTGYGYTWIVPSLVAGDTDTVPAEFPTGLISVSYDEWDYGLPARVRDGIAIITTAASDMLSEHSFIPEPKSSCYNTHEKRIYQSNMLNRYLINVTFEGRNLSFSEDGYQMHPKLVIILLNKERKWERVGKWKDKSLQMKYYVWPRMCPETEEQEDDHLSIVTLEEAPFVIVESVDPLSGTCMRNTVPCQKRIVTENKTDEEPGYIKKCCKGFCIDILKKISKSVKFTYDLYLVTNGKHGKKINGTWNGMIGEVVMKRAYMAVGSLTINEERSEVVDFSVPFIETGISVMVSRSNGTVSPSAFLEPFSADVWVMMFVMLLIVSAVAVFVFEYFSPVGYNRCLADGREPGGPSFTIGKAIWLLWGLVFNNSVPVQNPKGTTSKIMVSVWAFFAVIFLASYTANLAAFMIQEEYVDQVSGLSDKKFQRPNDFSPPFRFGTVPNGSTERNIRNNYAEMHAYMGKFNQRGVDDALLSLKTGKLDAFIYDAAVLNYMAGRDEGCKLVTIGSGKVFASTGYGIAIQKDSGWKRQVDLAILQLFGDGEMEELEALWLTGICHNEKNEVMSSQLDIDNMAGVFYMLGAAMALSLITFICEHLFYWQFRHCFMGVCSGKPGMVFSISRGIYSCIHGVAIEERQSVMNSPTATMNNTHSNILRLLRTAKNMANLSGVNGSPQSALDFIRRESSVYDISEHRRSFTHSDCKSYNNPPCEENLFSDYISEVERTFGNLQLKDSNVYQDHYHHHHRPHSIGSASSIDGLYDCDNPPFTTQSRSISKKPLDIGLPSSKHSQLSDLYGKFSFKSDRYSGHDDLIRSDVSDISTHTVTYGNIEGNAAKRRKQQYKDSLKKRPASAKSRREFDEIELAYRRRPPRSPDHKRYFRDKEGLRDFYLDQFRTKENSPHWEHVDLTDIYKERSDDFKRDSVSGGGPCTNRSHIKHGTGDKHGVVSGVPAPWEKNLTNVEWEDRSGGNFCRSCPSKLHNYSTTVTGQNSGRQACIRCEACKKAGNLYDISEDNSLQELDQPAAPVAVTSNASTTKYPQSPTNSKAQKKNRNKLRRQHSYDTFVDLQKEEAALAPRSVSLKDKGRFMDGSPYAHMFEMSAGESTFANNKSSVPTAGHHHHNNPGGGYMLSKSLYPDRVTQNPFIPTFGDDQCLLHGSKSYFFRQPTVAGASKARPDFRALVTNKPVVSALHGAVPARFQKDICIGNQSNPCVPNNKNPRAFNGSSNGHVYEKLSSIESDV
Experimental: HEK293 cells were transfected used the CaPO4 method. Cells were patched 1-3 days later and lifted into the flow from a theta tube perfusion. […] NMDA receptor currents were activated using 100 μM glutamate and 30 μM glycine.

[3] = biological target: GluN2D-containing NMDA receptors (Homo sapiens, UniProt O15399+Q05586); assay: Two-electrode voltage-clamp recordings from Xenopus laevis oocytes, GluN2D; type: cell-based; conditions: Table 6; read-out: IC50 (μM) Glu N2D
Outline: (§1)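 Xenopus oocytes expressing NMDA receptor subunits recorded by two-electrode voltage clamp 2–7 days after cRNA injection, in solution with 90 NaCl, 3 KCl, 10 HEPES, 0.5 BaCl2, 0.01 EDTA (mM), pH 7.4. Increasing compound concentrations applied with glutamate (100 μM) and glycine (30 μM); response expressed as percent of compound-free response.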

[4] = biological target: GluN2C-containing NMDA receptors (Homo sapiens, UniProt Q05586+Q14957); assay: Two-electrode voltage-clamp recordings from Xenopus laevis oocytes, GluN2C; type: cell-based; conditions: Table 6; read-out: IC50 (μM) Glu N2C
Chain of GluN2C-containing NMDA receptors (Homo sapiens, UniProt Q05586+Q14957) (Q14957 20-1233, other chains not shown): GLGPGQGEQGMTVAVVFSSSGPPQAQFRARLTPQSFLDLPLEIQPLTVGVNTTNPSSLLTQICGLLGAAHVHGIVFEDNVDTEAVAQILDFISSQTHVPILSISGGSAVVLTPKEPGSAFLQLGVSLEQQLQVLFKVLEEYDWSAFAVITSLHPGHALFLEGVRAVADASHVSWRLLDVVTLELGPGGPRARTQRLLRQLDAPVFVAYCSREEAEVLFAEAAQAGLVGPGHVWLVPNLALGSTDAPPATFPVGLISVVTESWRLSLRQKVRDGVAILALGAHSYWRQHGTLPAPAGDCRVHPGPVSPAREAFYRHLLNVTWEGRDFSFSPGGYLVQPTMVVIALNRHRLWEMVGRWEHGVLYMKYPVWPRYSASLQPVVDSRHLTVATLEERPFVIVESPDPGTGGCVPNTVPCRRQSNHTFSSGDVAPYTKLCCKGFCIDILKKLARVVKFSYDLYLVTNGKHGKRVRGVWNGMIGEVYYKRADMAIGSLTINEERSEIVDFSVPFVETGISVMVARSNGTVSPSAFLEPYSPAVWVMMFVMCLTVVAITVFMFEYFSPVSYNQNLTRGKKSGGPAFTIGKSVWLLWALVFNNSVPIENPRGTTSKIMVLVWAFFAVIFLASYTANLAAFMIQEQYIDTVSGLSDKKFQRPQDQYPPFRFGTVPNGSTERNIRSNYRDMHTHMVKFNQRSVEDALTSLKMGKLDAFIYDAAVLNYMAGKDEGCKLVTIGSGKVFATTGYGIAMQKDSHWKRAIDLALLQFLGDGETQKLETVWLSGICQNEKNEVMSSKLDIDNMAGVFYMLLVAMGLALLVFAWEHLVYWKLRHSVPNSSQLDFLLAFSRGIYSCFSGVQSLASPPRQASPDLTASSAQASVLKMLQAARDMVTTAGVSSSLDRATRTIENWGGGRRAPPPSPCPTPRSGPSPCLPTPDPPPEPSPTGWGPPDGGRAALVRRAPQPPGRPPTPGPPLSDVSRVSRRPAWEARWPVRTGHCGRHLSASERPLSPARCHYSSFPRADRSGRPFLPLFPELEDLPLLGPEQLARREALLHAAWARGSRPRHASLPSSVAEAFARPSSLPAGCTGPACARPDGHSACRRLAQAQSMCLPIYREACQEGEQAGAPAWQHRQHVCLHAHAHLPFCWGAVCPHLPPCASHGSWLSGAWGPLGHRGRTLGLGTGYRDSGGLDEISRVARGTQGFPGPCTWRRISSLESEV
Outline: as §1

[5] = biological target: GluN2B-containing NMDA receptors (Homo sapiens, UniProt Q13224); assay: Two-electrode voltage-clamp recordings from Xenopus laevis oocytes, GluN2B; type: cell-based; conditions: for % response at 100 μM, Glu N2B: Table 6, printed in the IC50 column, 100 μM compound; for I10 μM/ICONTROL (mean ± SEM, %) Glu N2B: 10 μM test compound with glutamate 100 μM and glycine 30 μM, Tables 1-5; for I10 μM/ICONTROL (mean ± SEM, %) Glu N2B / maximal potentiation Glu N2B: percent of response without compound; for EC50 / maximal potentiation Glu N2B: Table 1; for EC50: glutamate 100 μM, glycine 30 μM, Hill fit, read-out: EC50 Glu N2B; for maximal potentiation Glu N2B: in brackets after EC50
Chain of GluN2B-containing NMDA receptors (Q13224 27-1484, other chains not shown): as the sequence (Q13224 27-1484, other chains not shown) above
Outline: as §1

[6] = biological target: GluN2D-containing NMDA receptors (Homo sapiens, UniProt O15399); assay: Two-electrode voltage-clamp recordings from Xenopus laevis oocytes, GluN2D; type: cell-based; conditions: for I10 μM/ICONTROL (mean ± SEM, %) Glu N2D: 10 μM test compound with glutamate 100 μM and glycine 30 μM, Tables 1-5; for I10 μM/ICONTROL (mean ± SEM, %) Glu N2D / maximal potentiation Glu N2D: percent of response without compound; for EC50 / maximal potentiation Glu N2D: Table 1; for EC50: glutamate 100 μM, glycine 30 μM, Hill fit, read-out: EC50 Glu N2D; for maximal potentiation Glu N2D: in brackets after EC50
Outline: as §1

[7] = biological target: GluN2C-containing NMDA receptors (Homo sapiens, UniProt Q14957); assay: Two-electrode voltage-clamp recordings from Xenopus laevis oocytes, GluN2C; type: cell-based; conditions: for I10 μM/ICONTROL (mean ± SEM, %) Glu N2C: 10 μM test compound with glutamate 100 μM and glycine 30 μM, Tables 1-5; for I10 μM/ICONTROL (mean ± SEM, %) Glu N2C / maximal potentiation Glu N2C: percent of response without compound; for EC50 / maximal potentiation Glu N2C: Table 1; for EC50: glutamate 100 μM, glycine 30 μM, Hill fit, read-out: EC50 Glu N2C; for maximal potentiation Glu N2C: in brackets after EC50
Chain of GluN2C-containing NMDA receptors (Homo sapiens, UniProt Q14957) (Q14957 20-1233, other chains not shown): as the sequence (Q14957 20-1233, other chains not shown) above
Outline: as §1

[8] = 1622-35 10 μM versus control, N 4

## Cc1sc2ncn(CC(=O)N3CCCC3)c(=O)c2c1-c1cccc(I)c1 [Compound 1622-35]
[1]
  effect on CA1 EPSPs during theta burst stimulation: enhances the NMDA components of CA1 EPSPs
  effect on sEPSCs in hippocampal pyramidal neurons: potentiates only the NMDA component of the sEPSCs
[1]; 10 μM 1622-35
  total charge transfer of EPSCs: 2.3 times greater than control
[1]; 10 μM 1622-35, n=4, control 280±30 ms
  time course of excitatory post synaptic currents: 970 ± 220 ms
[2]; 30 μM 1622-35
  effect on channel function and deactivation, excised outside-out patch: increases in GluN1/GluN2 channel function and slows deactivation
[2]; [8]
  Decay Time Constant, Fold Increase: 5.7 ± 1.9 fold
  Peak Amplitude, Fold Increase: 3.4 ± 0.6 fold
[2]; 1622-35 10 μM, 100 μM glutamate, 30 μM glycine, control 628 ± 237, N 4
  Peak Amplitude (pA): 1694 ± 417 pA
[2]; 1622-35 10 μM, 100 μM glutamate, 30 μM glycine, control 681 ± 142, N 4
  Decay Time Constant: 3037 ± 166 ms
[2]; rapid solution exchange electrophysiology
  prolonged deactivation of NMDA-Rs: roughly 3 fold

## COc1ccc(C(=O)N2CN(CC3CCCO3)Cc3c2sc(C)c3C)cc1 (stereo not shown)
[3]
  IC50: 35 µM
[4]
  IC50: 6 µM
[5]
  % response at 100 μM, Glu N2B: 92% response at 100 μM

## COCCN1Cc2c(sc(C)c2C)N(C(=O)c2ccc(OC)cc2)C1
[3]
  IC50: 109 µM
[4]
  IC50: 46 µM
[5]
  % response at 100 μM, Glu N2B: 86% response at 100 μM

## Cc1sc2ncn(CC(=O)N3CCCC3)c(=O)c2c1-c1ccc(Br)c(Br)c1 [3,4-Br—Ph / Me]
[6]
  I10 μM/ICONTROL (mean ± SEM, %) Glu N2D: 292 ± 13.7%
  EC50: 30 µM
  maximal potentiation Glu N2D: 1205%
[7]
  I10 μM/ICONTROL (mean ± SEM, %) Glu N2C: 281 ± 17.7%
  EC50: 13 µM
  maximal potentiation Glu N2C: 561%
[5]
  I10 μM/ICONTROL (mean ± SEM, %) Glu N2B: 188 ± 9.3%
  EC50: 5.2 µM
  maximal potentiation Glu N2B: 223%

## Cc1sc2ncn(CC(=O)N3CCCC3)c(=O)c2c1-c1ccc(OCc2ccccc2)cc1 [4-BnO—Ph / Me]
[6]
  I10 μM/ICONTROL (mean ± SEM, %) Glu N2D: 131 ± 3.7%
  EC50: 25 µM
  maximal potentiation Glu N2D: 291%
[7]
  I10 μM/ICONTROL (mean ± SEM, %) Glu N2C: 135 ± 5.4%
  EC50: 35 µM
  maximal potentiation Glu N2C: 392%
[5]
  I10 μM/ICONTROL (mean ± SEM, %) Glu N2B: 118 ± 5.2%
  EC50: 11 µM
  maximal potentiation Glu N2B: 147%

## COCCn1cc(Cn2cnc3sc(C)c(-c4cccc(Cl)c4)c3c2=O)nn1
[6]
  I10 μM/ICONTROL (mean ± SEM, %) Glu N2D: 84 ± 3.4%
[7]
  I10 μM/ICONTROL (mean ± SEM, %) Glu N2C: 93 ± 2.2%
[5]
  I10 μM/ICONTROL (mean ± SEM, %) Glu N2B: 99 ± 1.9%

## [N-]=[N+]=Nc1ccc(-c2csc3ncn(CC(=O)N4CCCC4)c(=O)c23)cc1 [4-N3—Ph / H]
[6]
  I10 μM/ICONTROL (mean ± SEM, %) Glu N2D: 147 ± 6.3%
  EC50: 134 µM
  maximal potentiation Glu N2D: 730%
[7]
  I10 μM/ICONTROL (mean ± SEM, %) Glu N2C: 166 ± 7.2%
  EC50: 102 µM
  maximal potentiation Glu N2C: 918%
[5]
  I10 μM/ICONTROL (mean ± SEM, %) Glu N2B: 134 ± 6.7%
  EC50: 88 µM
  maximal potentiation Glu N2B: 353%

## Cc1sc2ncn(CC(=O)OC(C)(C)C)c(=O)c2c1-c1cccc(I)c1 [1 / 3-I—Ph / Me / OtBu]
[6]
  I10 μM/ICONTROL (mean ± SEM, %) Glu N2D: 94 ± 4.3%
[7]
  I10 μM/ICONTROL (mean ± SEM, %) Glu N2C: 101 ± 6.8%
[5]
  I10 μM/ICONTROL (mean ± SEM, %) Glu N2B: 87 ± 3.9%

## O=C(Cn1cnc2sc3c(c2c1=O)CCCC3)c1ccc(Cl)cc1Cl [2,4-Cl]
[6]
  I10 μM/ICONTROL (mean ± SEM, %) Glu N2D: 97 ± 1.8%
[7]
  I10 μM/ICONTROL (mean ± SEM, %) Glu N2C: 106 ± 4.4%
[5]
  I10 μM/ICONTROL (mean ± SEM, %) Glu N2B: 91 ± 3.6%

## O=C(Cn1cnc2scc(-c3ccc(Cl)cc3)c2c1=O)N1CCCC1 [4-Cl—Ph / H]
[6]
  EC50: 72 µM
  maximal potentiation Glu N2D: 512%
[7]
  EC50: 76 µM
  maximal potentiation Glu N2C: 770%
[5]
  EC50: 46 µM
  maximal potentiation Glu N2B: 314%

## O=C(Cn1cnc2sc3c(c2c1=O)CCCC3)c1ccc([N+](=O)[O-])cc1 [Compound 4-NO2]
[6]
  I10 μM/ICONTROL (mean ± SEM, %) Glu N2D: 97 ± 1.1%
[7]
  I10 μM/ICONTROL (mean ± SEM, %) Glu N2C: 93 ± 2.0%
[5]
  I10 μM/ICONTROL (mean ± SEM, %) Glu N2B: 94 ± 1.3%
